Values after ≈ are worked out from the molar mass of the structure shown.
Tests used:
[1] = system: Pseudomonas aeruginosa; assay: Antibacterial activity against Pseudomonas aeruginosa PAO200; assay type: functional
[2] = system: Pseudomonas aeruginosa; assay: Antibacterial activity against Pseudomonas aeruginosa PAO750; assay type: functional
[3] = system: Pseudomonas aeruginosa; assay: Antibacterial activity against Pseudomonas aeruginosa PAO1; assay type: functional
[4] = system: Pseudomonas aeruginosa; assay: Synergistic antibacterial activity against Pseudomonas aeruginosa assessed as reduction in mitomycin C MIC (reference value: […] to […] microg/ml); assay type: functional
[5] = system: Escherichia coli; assay: Synergistic antibacterial activity against Escherichia coli assessed as reduction in mitomycin C MIC (reference value: […] to […] microg/ml); assay type: functional
[6] = system: Klebsiella pneumoniae; assay: Synergistic antibacterial activity against Klebsiella pneumoniae assessed as reduction in mitomycin C MIC (reference value: […] to […] microg/ml); assay type: functional
[7] = system: Enterobacter cloacae; assay: Synergistic antibacterial activity against Enterobacter cloacae assessed as reduction in mitomycin C MIC (reference value: […] to […] microg/ml); assay type: functional
[8] = system: Staphylococcus aureus; assay: Antibacterial activity against Staphylococcus aureus; assay type: functional
[9] = system: Staphylococcus aureus; assay: Antibacterial activity against methicillin resistant Staphylococcus aureus 1; assay type: functional
[10] = system: Staphylococcus aureus; assay: Antibacterial activity against methicillin resistant Staphylococcus aureus 2; assay type: functional
[11] = system: Staphylococcus aureus; assay: Antibacterial activity against methicillin resistant Staphylococcus aureus 3; assay type: functional
[12] = system: Staphylococcus aureus; assay: Antibacterial activity against methicillin susceptible Staphylococcus aureus; assay type: functional
[13] = system: Streptococcus pneumoniae; assay: Antibacterial activity against Streptococcus pneumoniae; assay type: functional
[14] = system: Staphylococcus aureus; assay: Potency index, ratio of gatifloxacin MIC to test compound MIC for antibacterial activity against Staphylococcus aureus; assay type: functional
[15] = system: Staphylococcus aureus; assay: Potency index, ratio of gatifloxacin MIC to test compound MIC for antibacterial activity against methicillin susceptible Staphylococcus aureus; assay type: functional
[16] = system: Streptococcus pneumoniae; assay: Potency index, ratio of gatifloxacin MIC to test compound MIC for antibacterial activity against methicillin susceptible Streptococcus pneumoniae; assay type: functional
[17] = system: Staphylococcus aureus; assay: Potency index, ratio of vancomycin MIC to test compound MIC for antibacterial activity against Staphylococcus aureus; assay type: functional
[18] = system: Staphylococcus aureus; assay: Potency index, ratio of vancomycin MIC to test compound MIC for antibacterial activity against methicillin susceptible Staphylococcus aureus; assay type: functional
[19] = system: Streptococcus pneumoniae; assay: Potency index, ratio of vancomycin MIC to test compound MIC for antibacterial activity against methicillin susceptible Streptococcus pneumoniae; assay type: functional
[20] = system: Staphylococcus aureus; assay: Potency index, ratio of vancomycin MIC to test compound MIC for antibacterial activity against methicillin resistant Staphylococcus aureus 1; assay type: functional
[21] = system: Staphylococcus aureus; assay: Potency index, ratio of vancomycin MIC to test compound MIC for antibacterial activity against methicillin resistant Staphylococcus aureus 2; assay type: functional
[22] = system: Staphylococcus aureus; assay: Potency index, ratio of vancomycin MIC to test compound MIC for antibacterial activity against methicillin resistant Staphylococcus aureus 3; assay type: functional
[23] = system: Pseudomonas aeruginosa; assay: Antibacterial activity against quinolone susceptible Pseudomonas aeruginosa; assay type: functional
[24] = system: Escherichia coli; assay: Antibacterial activity against quinolone susceptible Escherichia coli; assay type: functional
[25] = system: Pseudomonas aeruginosa; assay: Antibacterial activity against quinolone resistant Pseudomonas aeruginosa; assay type: functional
[26] = system: Escherichia coli; assay: Antibacterial activity against quinolone resistant Escherichia coli; assay type: functional
[27] = system: Acinetobacter baumannii; assay: Antibacterial activity against quinolone resistant Acinetobacter baumannii; assay type: functional
[28] = system: Pseudomonas aeruginosa; assay: Potency index, ratio of levofloxacin MIC to test compound MIC for quinolone resistant Pseudomonas aeruginosa; assay type: functional
[29] = system: Escherichia coli; assay: Potency index, ratio of levofloxacin MIC to test compound MIC for quinolone resistant Escherichia coli; assay type: functional
[30] = system: Acinetobacter baumannii; assay: Potency index, ratio of levofloxacin MIC to test compound MIC for quinolone resistant Acinetobacter baumannii; assay type: functional
[31] = system: Escherichia coli; assay: Antibacterial activity against Escherichia coli UTI89; assay type: functional
[32] = system: Escherichia coli; assay: Antibacterial activity against Escherichia coli CFT073; assay type: functional
[33] = system: Staphylococcus aureus; assay: Antibacterial activity against methicillin resistant Staphylococcus aureus; assay type: functional
[34] = system: Staphylococcus aureus; assay: Potency index, ratio of ciprofloxacin MIC to test compound MIC for antibacterial activity against Staphylococcus aureus; assay type: functional
[35] = system: Staphylococcus aureus; assay: Potency index, ratio of ciprofloxacin MIC to test compound MIC for antibacterial activity against methicillin resistant Staphylococcus aureus; assay type: functional
[36] = system: Klebsiella pneumoniae; assay: Antibacterial activity against Klebsiella pneumoniae; assay type: functional
[37] = system: Pseudomonas aeruginosa; assay: Antibacterial activity against Pseudomonas aeruginosa; assay type: functional
[38] = system: Enterococcus faecium; assay: Antibacterial activity against Enterococcus faecium; assay type: functional
[39] = system: Chlamydia trachomatis; assay: Antibacterial activity against Chlamydia trachomatis; assay type: functional
[40] = system: Enterobacter; assay: Antibacterial activity against Enterobacter; assay type: functional
[41] = system: Escherichia coli; assay: Antibacterial activity against Escherichia coli; assay type: functional
[42] = system: Staphylococcus epidermidis; assay: Antibacterial activity against Staphylococcus epidermidis; assay type: functional
[43] = system: Staphylococcus aureus; assay: Potency index, ratio of ciprofloxacin MIC to test compound MIC for antibacterial activity against methicillin sensitive Staphylococcus aureus; assay type: functional
[44] = system: Staphylococcus epidermidis; assay: Potency index, ratio of ciprofloxacin MIC to test compound MIC for antibacterial activity against methicillin sensitive Staphylococcus epidermidis; assay type: functional
[45] = system: Micrococcus luteus; assay: Antibacterial activity against Micrococcus luteus; assay type: functional
[46] = system: Bacillus subtilis; assay: Antibacterial activity against Bacillus subtilis; assay type: functional
[47] = system: Priestia megaterium; assay: Antibacterial activity against Bacillus megaterium; assay type: functional
[48] = Antibacterial activity against Salmonella typhi; assay type: functional, Salmonella enterica subsp. enterica serovar Typhimurium; details: Salmonella enterica
[49] = system: Escherichia coli; assay: Antibacterial activity against ciprofloxacin resistant Escherichia coli; assay type: functional
[50] = system: Staphylococcus aureus; assay: Antibacterial activity against ciprofloxacin resistant Staphylococcus aureus; assay type: functional
[51] = system: Vibrio cholerae; assay: Antibacterial activity against Vibrio cholerae; assay type: functional
[52] = system: Shigella flexneri; assay: Antibacterial activity against Shigella flexneri; assay type: functional
[53] = system: Citrobacter freundii; assay: Antibacterial activity against Citrobacter freundii; assay type: functional

NC[C@H]1O[C@H](O[C@H]2[C@H](OCCCCN3CCN(c4cc5c(cc4F)c(=O)c(C(=O)O)cn5C4CC4)CC3)[C@@H](O[C@H]3O[C@H](CO)[C@@H](O)[C@H](N)[C@H]3O)[C@H](N)C[C@@H]2N)[C@H](N)C[C@@H]1O
MIC [1]: 4 µg/mL (≈ 4.69 µM) | MIC [2]: 2 µg/mL (≈ 2.34 µM) | MIC [3]: 32 µg/mL (≈ 37.5 µM) | MIC [4]: 0.31 µg/mL | MIC [5]: 0.31 µg/mL | MIC [6]: 0.31 µg/mL | MIC [7]: 0.31 µg/mL

CO/N=C1/C(=O)N(Cc2cn(CC(=O)N3CCN(c4c(F)cc5c(=O)c(C(=O)O)cn(C6CC6)c5c4OC)CC3C)nn2)c2ccc(F)cc21 (stereo not given)
MIC [8]: 0.06 µg/mL (≈ 0.0869 µM) | MIC [9]: ≤ 0.03 µg/mL | MIC [10]: ≤ 0.03 µg/mL | MIC [11]: ≤ 0.03 µg/mL | MIC [12]: 0.06 µg/mL (≈ 0.0869 µM) | MIC [13]: 0.06 µg/mL (≈ 0.0869 µM) | Ratio [14]: 2 | Ratio [15]: 2 | Ratio [16]: 2 | Ratio [17]: 2 | Ratio [18]: 2 | Ratio [19]: 2

CCn1cc(C(=O)O)c(=O)c2cc(F)c(N3CCN(Cc4nnc(-c5cccc(OC)c5)o4)CC3)cc21
MIC [8]: 2 µg/mL (≈ 3.94 µM) | MIC [9]: 0.5 µg/mL (≈ 0.985 µM) | MIC [10]: 0.5 µg/mL (≈ 0.985 µM) | MIC [11]: 1 µg/mL (≈ 1.97 µM) | Ratio [20]: 2 | Ratio [21]: 2 | Ratio [22]: 2

CNC1CN(c2c(F)c(C)c3c(=O)c(C(=O)O)cn(-c4cc(N)c(F)cc4CO)c3c2Cl)C1
MIC [23]: 0.008 µg/mL (≈ 0.0167 µM) | MIC [24]: 0.008 µg/mL (≈ 0.0167 µM) | MIC [25]: 0.12 µg/mL (≈ 0.251 µM) | MIC [26]: 0.12 µg/mL (≈ 0.251 µM) | MIC [27]: 0.12 µg/mL (≈ 0.251 µM) | Ratio [28]: 2 | Ratio [29]: 2 | Ratio [30]: 2

CC(=O)c1cn(C2CC2)c2cc(N3CCN(C(=O)CCCCCNC(=O)c4cc(O)c(O)c(C(=O)N[C@H]5COC(=O)[C@@H](NC(=O)c6cccc(O)c6O)COC(=O)[C@@H](NC(=O)c6cccc(O)c6O)COC5=O)c4)CC3)c(F)cc2c1=O
MIC [31]: 0.1 µg/mL (≈ 0.0879 µM) | MIC [32]: 0.1 µg/mL (≈ 0.0879 µM)

O=C(O)c1cn(C2CC2)c2cc(N3CCN(Cc4nc5ccccc5c(=O)[nH]4)CC3)c(F)cc2c1=O
MIC [8]: 0.016 µg/mL (≈ 0.0327 µM) | MIC [33]: 0.016 µg/mL (≈ 0.0327 µM) | Ratio [34]: 30 | Ratio [35]: 60

COc1c(N2CCN(C(=O)c3ccc4cccc(O)c4n3)CC2)c(F)cc2c(=O)c(C(=O)O)cn(C3CC3)c12
MIC [36]: ≤ 0.06 µg/mL | MIC [37]: ≤ 0.06 µg/mL | MIC [8]: ≤ 0.06 µg/mL | MIC [27]: ≤ 0.06 µg/mL | MIC [38]: ≤ 0.06 µg/mL | MBC [39]: 2 µg/mL (≈ 3.76 µM) | MIC [39]: ≤ 0.06 µg/mL | MIC [40]: ≤ 0.06 µg/mL

O=C(CSC(=S)N1CCN(c2cc3c(cc2F)c(=O)c(C(=O)O)cn3C2CC2)CC1)Nc1ccccc1Cl
MIC [41]: 0.024 µg/mL (≈ 0.0417 µM) | MIC [37]: 0.024 µg/mL (≈ 0.0417 µM) | MIC [8]: 0.097 µg/mL (≈ 0.169 µM) | MIC [33]: 0.097 µg/mL (≈ 0.169 µM) | MIC [42]: 0.097 µg/mL (≈ 0.169 µM) | MIC [12]: 0.097 µg/mL (≈ 0.169 µM) | Ratio [34]: 2 | Ratio [43]: 2 | Ratio [44]: 2

O=C(O)c1cn(C2CC2)c2cc(N3CCNCC3)c(F)cc2c1=O [CIPROFLOXACIN]
MIC [36]: 0.15 µg/mL (≈ 0.453 µM) | MIC [37]: 0.012 µg/mL (≈ 0.0362 µM) | MIC [8]: 0.015 µg/mL (≈ 0.0453 µM) | MIC [45]: 7.8 µg/mL (≈ 23.5 µM) | MIC [42]: 0.015 µg/mL (≈ 0.0453 µM) | MIC [46]: 0.015 µg/mL (≈ 0.0453 µM) | MIC [23]: 0.008 µg/mL (≈ 0.0241 µM) | MIC [25]: 16 µg/mL (≈ 48.3 µM) | MIC [27]: 16 µg/mL (≈ 48.3 µM) | MIC [47]: 7.8 µg/mL (≈ 23.5 µM) | MIC [48]: 0.15 µg/mL (≈ 0.453 µM) | MIC [12]: 0.195 µg/mL (≈ 0.589 µM) | MIC [49]: 20.5 µg/mL (≈ 61.9 µM) | MIC [50]: 20.5 µg/mL (≈ 61.9 µM) | MBC [39]: > 50 µg/mL | MIC [51]: 0.15 µg/mL (≈ 0.453 µM) | MIC [52]: 0.15 µg/mL (≈ 0.453 µM) | MIC [53]: 0.15 µg/mL (≈ 0.453 µM)
